# Article PMC5091859, “Protein Translation Enzyme lysyl-tRNA Synthetase Presents a New Target for Drug Development against Causative Agents of Loiasis and Schistosomiasis” (PLoS Neglected Tropical Diseases, 2016)
# Values joined by “and” are separate entries in the source; they are usually repeats but may differ in a detail not shown here. Identical values can stand only once.
# Legend:
# [1] = target: Schistosoma mansoni lysyl-tRNA synthetase (Schistosoma mansoni); test: SEC; gel permeation chromatography of the purified protein on a column calibrated with high molecular weight standards, protein buffer as mobile phase, 0.5 ml/min; elution at dimer size, no absorbance at tetrameric size
# [2] = target: T1, SmKRS (Schistosoma mansoni, UniProt A0A3Q0KK01); test: Protein thermal shift assay, SmKRS; type: binding; details: ligand 20 μM, KRS 2 μM (10:1), 1 mM L-lysine
# Method: (§1) Protein melt curve assays for both worm KRSs were performed as reported earlier. Both KRSs were diluted in buffer containing 20 mM Tris (pH 8.0), 200 mM NaCl, 5 mM MgCl2, 1 mM L-lysine and 2 X SYPRO orange dye (Life Technologies). […] Ligand bound and unbound samples of both KRSs were heated from 20 to 96°C at a rate of 1°C min^-1 and fluorescence signals were monitored by StepOnePlus quantitative real-time PCR system (Life Technologies). […] Each curve was an average of three measurements and data were analyzed using thermal shift software (Life technologies). Samples without the addition of ligands were used to determine thermal melting profile of apo proteins. […] Derivative Tm (melting temperature) was used for analysis.
# [3] = target: T2, LlKRS (Loa loa, UniProt A0A1I7VQ84); test: Protein thermal shift assay, LlKRS; type: binding; details: ligand 20 μM, KRS 2 μM (10:1), 1 mM L-lysine
# Method: as §1
# [4] = target: Human-like LlKRS V329Q/S346T mutant (Loa loa, UniProt A0A1I7VQ84); type: binding; details: ligand 20 μM, KRS 2 μM (ten fold), 1 mM L-lysine
# [5] = target: Loa loa lysyl-tRNA synthetase (Loa loa); test: SEC; gel permeation chromatography of the purified protein on a column calibrated with high molecular weight standards, protein buffer as mobile phase, 0.5 ml/min; elution at dimer size, no absorbance at tetrameric size
# [6] = target: T2, LlKRS; test: Isothermal titration calorimetry, LlKRS; type: binding; details: 30°C
# Method: (§2) ITC experiments were conducted at 30°C in the MicroCal ITC-200 apparatus (GE Healthcare) and results were fitted into graph using Microcal origin software. […] For LlKRS, titrations consisted of 0.4 μl of first injection followed by 39 injections of 1 μl with 150 s intervals between injections. For SmKRS, same titrations were performed with 120 s intervals.
# [7] = target: T1, SmKRS; test: Isothermal titration calorimetry, SmKRS; type: binding; details: 30°C
# Method: as §2
# [8] = target: SmKRS (S. mansoni lysyl-tRNA synthetase), wild type (Schistosoma mansoni, UniProt A0A3Q0KK01); test: Aminoacylation enzyme inhibition assay, SmKRS; type: biochemical; details: 500 nM enzyme, 100 μM ATP, 500 μM L-lysine, 18 μM SmtRNALys, 37°C
# Method: Aminoacylation and enzyme inhibition assays for both KRSs were performed as described elsewhere [17, 48]. SmtRNA^Lys was refolded prior to enzyme assays by heating at 70°C for 10 minutes followed by addition of 10 mM MgCl2 and slow cooling to room temperature. Aminoacylation buffer for both worm KRSs contained 30 mM HEPES (pH 7.5), 150 mM NaCl, 30 mM KCl, 50 mM MgCl2, 1mM DTT, 100 μM ATP, 500 μM L-lysine, 18 μM SmtRNA^Lys, 2 U/ml E. coli inorganic pyrophosphatase (NEB) and 500 nM recombinant SmKRS or LlKRS protein at 37°C. Reaction at different time points was stopped by addition of 40 mM EDTA followed by transfer to ice. Recombinant maltose binding protein (MBP) was used as a control.
# [9] = target: human counterpart KRS (HsKRS); details: read-out: Affinity for human counterpart KRS; cited from earlier work
# [10] = parameters: method as in PMID 22704625; details: main limitation as a lead molecule; cited from earlier work
# [11] = system: malaria liver stage; parameters: method as in PMID 22704625; details: cited from earlier work
# [12] = system: malaria blood stage; parameters: method as in PMID 22704625; details: cited from earlier work
molecule,measurement,setting,value
Schistosoma mansoni lysyl-tRNA synthetase (enzyme),stoichiometry N,[1],2
"adenosine 5’-(β, γ-imido) triphosphate [AMPPNP]",Thermal shift of SmKRS,[2],~ 0.4 °C
same,Thermal shift of LlKRS,[3],~ 0.3 °C
same,Thermal shift of human-like LlKRS,[4],~ 0.4 °C
Loa loa lysyl-tRNA synthetase (enzyme),stoichiometry N,[5],2
C[C@H]1CCC[C@H](C[C@H]2Cc3cc(O)cc(O)c3C(=O)O2)O1 [cladosporin],"n Value (one site model), LlKRS",[6],0.821 ± 0.01
same,"ΔH (ITC), LlKRS",[6],-17.28 ± 0.3965 kcal/mol
same,"ΔS (ITC), LlKRS",[6],-24.9 cal/mol/deg
same,"n Value (one site model), SmKRS",[7],0.979 ±0.00
same,"ΔH (ITC), SmKRS",[7],-16.59 ± 0.2013 kcal/mol
same,"ΔS (ITC), SmKRS",[7],-21.7 cal/mol/deg
same,Kd,"[7]; PBS pH 7.4, 1 mM L-Lys, 2 mM MgCl2, read-out: Kd (ITC), SmKRS",62.8 ± 7.8 nM
same,IC50,[8],97 nM and ~97 nM
same,Kd,[9],3300 nM
same,Bioavailability,[10],Poor
same,IC50,[11],< 100 nM
same,IC50,[12],< 100 nM
